# From patent US20250134109A1, “Antimicrobial, Antiviral and Antifungal Articles and Methods of Producing Such Articles” (Cupron, Inc., priority 2021, published 2025)
# Assay: Copper ion release from 1.0μ particles of various copper compounds over exposure cycles
# Assay type: physicochemical
# Excerpt: In many embodiments, it is possible to provide ion release rates that are tailored to the specific application. For example, embodiments include articles that comprise first particles having a first ion release rate and second particles having a second ion release rate.
# The ion release rates listed may be considered to be an average ion release rate of a plurality of particles or powder having an average particle size of 1 micron also. […]
Molecule,Copper ion release from 1.0μ particles (exposure cycle 0),Copper ion release from 1.0μ particles (exposure cycle 5),Copper ion release from 1.0μ particles (exposure cycle 10),Copper ion release from 1.0μ particles (exposure cycle 15),Copper ion release from 1.0μ particles (exposure cycle 20),Copper ion release from 1.0μ particles (exposure cycle 25),Copper ion release from 1.0μ particles (exposure cycle 30),Copper ion release from 1.0μ particles (exposure cycle 35),Copper ion release from 1.0μ particles (exposure cycle 40),Copper ion release from 1.0μ particles (exposure cycle 45),Copper ion release from 1.0μ particles (exposure cycle 50),number of exposures in which copper ions are released into a fluid (as shown in Table 1)
copper sulfide [Cu2S],0.5 ppm,0.5 ppm,0.5 ppm,0.5 ppm,0.5 ppm,0.5 ppm,0.5 ppm,0.5 ppm,0.5 ppm,0.5 ppm,0.5 ppm,
cuprous thiocyanate [CuSCN],4.0 ppm,2.7 ppm,1.8 ppm,1.3 ppm,0.9 ppm,0.6 ppm,0.4 ppm,0.3 ppm,0.2 ppm,0.1 ppm,0.0 ppm,
"[Cu+].[I-] [Cul, cuprous iodide]",6.0 ppm,3.0 ppm,1.5 ppm,0.7 ppm,0.4 ppm,0.2 ppm,0.1 ppm,0.0 ppm,0.0 ppm,0.0 ppm,0.0 ppm,
"O=S(=O)([O-])[O-].[Cu+2] [CuSO4, copper sulfate]",100.0 ppm,0.0 ppm,0.0 ppm,0.0 ppm,0.0 ppm,0.0 ppm,0.0 ppm,0.0 ppm,0.0 ppm,0.0 ppm,0.0 ppm,less than five exposures
